Where a SMILES comes first, the peptide text is derived from it. Bridges are numbered along the chain shown (N, C = ends). [ ]: non-standard residue; d: D form. Tle = CC(C)(C)[C@H](N)C(=O)O; Orn = NCCC[C@H](N)C(=O)O; Dab = NCC[C@H](N)C(=O)O; dAze = O=C(O)[C@H]1CCN1; Dap = NC[C@H](N)C(=O)O; Sar = CNCC(=O)O
Legend:
Format in all cases: cell-based
[1] = test system: human red blood cells (hRBC); assay: Hemolysis of human red blood cells; details: red cells of human, 1 h, 100 μg/mL
How it was run: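 Each peptide was tested at a single concentration, 100 μg/mL. Erythrocytes (20% v/v) were incubated 1 h at 37° C. under shaking at 300 rpm, centrifuged, and released hemoglobin measured at OD540. Controls were PBS containing 0.001% acetic acid (0%) and Triton X-100 (100%).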

[2] = test system: Acinetobacter baumannii 872842; details: 872842
[3] = test system: Escherichia coli ATCC 25922; details: ATCC 25922
How it was run: (§1)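 Peptide stocks (1 mg/mL, water) were diluted two-fold into MH-II broth with 0.002% P-80 and mixed with approx. 10^6 CFU/mL bacteria. Plates were read visually after 18-20 hours at 35° C, with MIC expressed in μg/mL per CLSI.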

[4] = test system: Klebsiella pneumoniae 968733; details: 968733
[5] = test system: Klebsiella pneumoniae SSI #3010; details: SSI #3010
How it was run: as §1

Escherichia coli 926415 = details: 926415
[6] = test system: Acinetobacter baumannii DSM 30008; details: DSM 30008
How it was run: as §1

[7] = test system: Pseudomonas aeruginosa ATCC 27853; details: ATCC 27853
How it was run: as §1

Row | Structure (SMILES) | Hemolysis at 100 μg/mL [1] | Acinetobacter baumannii 872842 MIC [2] | Escherichia coli ATCC 25922 MIC [3] | Klebsiella pneumoniae 968733 MIC [4] | Klebsiella pneumoniae SSI #3010 MIC [5] | Escherichia coli 926415 MIC (Escherichia coli 926415) | Acinetobacter baumannii DSM 30008 MIC [6] | Pseudomonas aeruginosa ATCC 27853 MIC [7]
1 | CC(C)C[C@@H]1NC(=O)[C@@H](CC(C)C)NC(=O)[C@H](CCN)NC(=O)[C@@H](NC(=O)[C@H](CCN)NC(=O)[C@@H](NC(=O)[C@H](CCN)NC(=O)CN(C)C(=O)[C@@H]2CSSC[C@H](NC(=O)[C@@H](N)Cc3c[nH]c4ccccc34)C(=O)N[C@@H](C(C)C)C(=O)N[C@@H](C)C(=O)N[C@@H](CO)C(=O)N3CCC[C@@H]3C(=O)N3CCC[C@H]3C(=O)N[C@@H](CC(C)C)C(=O)N[C@@H](CO)C(=O)N[C@@H](Cc3ccc(O)cc3)C(=O)N2)[C@@H](C)O)CCNC(=O)[C@@H]([C@H](C)O)NC(=O)[C@H](CCN)NC(=O)[C@H](CCN)NC1=O [Ex. 178] (H-WCVAS[dP]PLSYC[Sar][Dab]T[Dab][Dab][Dab][dL]L[Dab][Dab][dT]; disulfide 2-11; lactam 16-C) | <1% | 2 µg/mL | 0.5 µg/mL | 8 µg/mL | 0.5 µg/mL | 1 µg/mL | 1 µg/mL | 4 µg/mL
2 | CC(C)C[C@@H]1NC(=O)[C@@H](CC(C)C)NC(=O)[C@H](CCN)NC(=O)[C@@H](NC(=O)[C@H](CCN)NC(=O)[C@@H](NC(=O)[C@H](CCN)NC(=O)CN(C)C(=O)[C@@H]2CSSC[C@H](NC(=O)[C@@H](N)Cc3c[nH]c4ccccc34)C(=O)N[C@@H](C(C)C)C(=O)N[C@@H](C)C(=O)N[C@@H](CO)C(=O)N3CCC[C@@H]3C(=O)N3CCC[C@H]3C(=O)N[C@@H](CC(C)C)C(=O)N[C@@H](CO)C(=O)N[C@@H](Cc3ccc(O)cc3)C(=O)N2)[C@@H](C)O)CCNC(=O)[C@H](C(C)C)NC(=O)[C@H](CCN)NC(=O)[C@H](CCN)NC1=O [Ex. 179] (H-WCVAS[dP]PLSYC[Sar][Dab]T[Dab][Dab][Dab][dL]L[Dab][Dab]V; disulfide 2-11; lactam 16-C) | <1% | 0.0625 µg/mL | 0.0625 µg/mL | 0.5 µg/mL | 0.125 µg/mL | 0.125 µg/mL | 0.0625 µg/mL | 1 µg/mL
3 | CNCC(=O)N[C@@H](Cc1c[nH]c2ccccc12)C(=O)N[C@H]1CSSC[C@@H](C(=O)N(C)CC(=O)N[C@H](C(=O)N[C@@H](CCN)C(=O)N[C@@H](CCN)C(=O)N[C@H]2CCNC(=O)[C@H]([C@@H](C)O)NC(=O)[C@H](CCN)NC(=O)[C@H](CCN)NC(=O)[C@H](CC(C)C)NC(=O)[C@@H](CC(C)C)NC(=O)[C@H](CCN)NC2=O)[C@@H](C)O)NC(=O)[C@H](Cc2ccc(O)cc2)NC(=O)[C@H](CO)NC(=O)[C@H](CC(C)C)NC(=O)[C@@H]2CCCN2C(=O)[C@H]2CCCN2C(=O)[C@H](CO)NC(=O)[C@H](C)NC(=O)[C@H](C(C)C)NC1=O [Ex. 184] (H-[Sar]WCVAS[dP]PLSYC[Sar]T[Dab][Dab][Dab][Dab][dL]L[Dab][Dab]T; disulfide 3-12; lactam 17-C) | <1% | 1 µg/mL | 0.5 µg/mL | 1 µg/mL | 0.5 µg/mL | 1 µg/mL | 0.5 µg/mL | 0.75 µg/mL
4 | CNCC(=O)N[C@@H](Cc1c[nH]c2ccccc12)C(=O)N[C@H]1CSSC[C@@H](C(=O)N(C)CC(=O)N[C@@H](CCN)C(=O)N[C@H](C(=O)N[C@@H](CCN)C(=O)N[C@H]2CCNC(=O)[C@H]([C@@H](C)O)NC(=O)[C@H](CCN)NC(=O)[C@H](CCN)NC(=O)[C@H](CC(C)C)NC(=O)[C@@H](CC(C)C)NC(=O)[C@H](CCN)NC2=O)[C@@H](C)O)NC(=O)[C@H](Cc2ccc(O)cc2)NC(=O)[C@H](CO)NC(=O)[C@H](CC(C)C)NC(=O)[C@@H]2CCCN2C(=O)[C@H]2CCCN2C(=O)[C@H](CCN)NC(=O)[C@H](C)NC(=O)[C@H](C(C)C)NC1=O [Ex. 185] (H-[Sar]WCVA[Dab][dP]PLSYC[Sar][Dab]T[Dab][Dab][Dab][dL]L[Dab][Dab]T; disulfide 3-12; lactam 17-C) | 1% | 1 µg/mL | 0.25 µg/mL | 8 µg/mL | 1 µg/mL | 2 µg/mL | 0.25 µg/mL | 1 µg/mL
5 | CNCC(=O)N[C@@H](CC(C)C)C(=O)N[C@H]1CSSC[C@@H](C(=O)N(C)CC(=O)N[C@@H](CCN)C(=O)N[C@H](C(=O)N[C@@H](CCN)C(=O)N[C@H]2CCNC(=O)[C@H]([C@@H](C)O)NC(=O)[C@H](CCN)NC(=O)[C@H](CCN)NC(=O)[C@H](CC(C)C)NC(=O)[C@@H](CC(C)C)NC(=O)[C@H](CCN)NC2=O)[C@@H](C)O)NC(=O)[C@H](Cc2ccc(O)cc2)NC(=O)[C@H](CO)NC(=O)[C@H](CC(C)C)NC(=O)[C@@H]2CCCN2C(=O)[C@H]2CCCN2C(=O)[C@H](Cc2ccc(O)cc2)NC(=O)[C@H](C)NC(=O)[C@H](C(C)C)NC1=O [Ex. 186] (H-[Sar]LCVAY[dP]PLSYC[Sar][Dab]T[Dab][Dab][Dab][dL]L[Dab][Dab]T; disulfide 3-12; lactam 17-C) | <1% | 0.0625 µg/mL | 0.125 µg/mL | 0.5 µg/mL | 0.125 µg/mL | 0.25 µg/mL | 0.1251 µg/mL | 0.25 µg/mL
6 | CNCC(=O)N[C@@H](Cc1c[nH]c2ccccc12)C(=O)N[C@H]1CSSC[C@@H](C(=O)N(C)CC(=O)N[C@@H](CCN)C(=O)N[C@H](C(=O)N[C@@H](CCN)C(=O)N[C@H]2CCNC(=O)[C@H]([C@@H](C)O)NC(=O)[C@H](CCNC(=O)[C@@H](N)CCCNC(=N)N)NC(=O)[C@H](CCN)NC(=O)[C@H](CC(C)C)NC(=O)[C@@H](CC(C)C)NC(=O)[C@H](CCN)NC2=O)[C@@H](C)O)NC(=O)[C@H](Cc2ccc(O)cc2)NC(=O)[C@H](CO)NC(=O)[C@H](CC(C)C)NC(=O)[C@@H]2CCCN2C(=O)[C@H]2CCCN2C(=O)[C@H](CO)NC(=O)[C@H](C)NC(=O)[C@H](C(C)C)NC1=O [Ex. 187] (H-[Sar]WCVAS[dP]PLSYC[Sar][Dab]T[Dab][Dab][Dab][dL]L[Dab][Dab](Arg)T; disulfide 3-12; lactam 17-C) | <1% | 1 µg/mL | 0.125 µg/mL | 1 µg/mL | 0.125 µg/mL | 2 µg/mL | 0.125 µg/mL | 1 µg/mL
7 | CC(C)C[C@@H]1NC(=O)[C@H](CO)NC(=O)[C@H](C(C)C)NC(=O)[C@@H]2CCCN2C(=O)[C@H]2CCCN2C(=O)[C@H](CO)NC(=O)[C@H](C)NC(=O)[C@H](C(C)(C)C)NC(=O)[C@@H](NC(=O)[C@@H](N)Cc2c[nH]c3ccccc23)CSSC[C@@H](C(=O)N[C@@H](CCCN)C(=O)N[C@@H](CCN)C(=O)N[C@H]2CCNC(=O)[C@H]([C@@H](C)O)NC(=O)[C@H](CCN)NC(=O)[C@H](CCN)NC(=O)[C@H](CC(C)C)NC(=O)[C@@H](Cc3ccccc3)NC(=O)[C@H](CCN)NC2=O)NC1=O [Ex. 188] (H-WC[Tle]AS[dP]PVSLC[Orn][Dab][Dab][Dab][dF]L[Dab][Dab]T; disulfide 2-11; lactam 14-C) | <1% | 1 µg/mL | 0.25 µg/mL | 4 µg/mL | 0.25 µg/mL | 0.25 µg/mL | 0.25 µg/mL | 1 µg/mL
8 | CC(C)C[C@@H]1NC(=O)[C@@H](CC(C)C)NC(=O)[C@H](CCN)NC(=O)[C@@H](NC(=O)[C@H](CCN)NC(=O)[C@H](CN)NC(=O)[C@@H]2CSSC[C@H](NC(=O)[C@@H](N)Cc3c[nH]c4ccccc34)C(=O)N[C@@H](C(C)(C)C)C(=O)N[C@@H](C)C(=O)N[C@@H]([C@@H](C)O)C(=O)N3CC[C@@H]3C(=O)N3CCC[C@H]3C(=O)N[C@@H](C(C)C)C(=O)N[C@@H](CO)C(=O)N[C@@H](Cc3ccc(O)cc3)C(=O)N2)CCNC(=O)[C@H]([C@@H](C)O)NC(=O)[C@H](CCN)NC(=O)[C@H](CCN)NC1=O [Ex. 189] (H-WC[Tle]AT[dAze]PVSYC[Dap][Dab][Dab][Dab][dL]L[Dab][Dab]T; disulfide 2-11; lactam 14-C) | 1% | 0.125 µg/mL | 0.25 µg/mL | 1 µg/mL | 0.5 µg/mL | 0.5 µg/mL | 0.5 µg/mL | 2 µg/mL

Source: patent US10829520B2, “Beta-hairpin peptidomimetics” (POLYPHOR AG, priority 2015, dated 2020)
